From patent US12590106B2, “Spiromacrocyclic orexin 2 receptor agonists” (H. Lundbeck A/S, priority 2023, dated 2026) come the findings set out here.

By EC50 is commonly meant the concentration at which the effect is half-maximal. The term Emax denotes the maximal effect, on the per cent scale that the assay sets. By Papp A→B is commonly meant the apparent permeability from the apical to the basolateral side of a cell layer. Lower therefore signals poor permeation.

The target in data set [1] is T1, human Ox2R (Homo sapiens, UniProt O43614).
T1 construct: The gene encoding hOx2R was subcloned into the expression plasmid pcDNA5/FRT/TO; expressed in transfected cells; host or cells: CHO Flp-In cells (pcDNA5/FRT/TO with pOG44 Flp recombinase vector, hygromycin B selection)
T1 sequence (O43614 1-444): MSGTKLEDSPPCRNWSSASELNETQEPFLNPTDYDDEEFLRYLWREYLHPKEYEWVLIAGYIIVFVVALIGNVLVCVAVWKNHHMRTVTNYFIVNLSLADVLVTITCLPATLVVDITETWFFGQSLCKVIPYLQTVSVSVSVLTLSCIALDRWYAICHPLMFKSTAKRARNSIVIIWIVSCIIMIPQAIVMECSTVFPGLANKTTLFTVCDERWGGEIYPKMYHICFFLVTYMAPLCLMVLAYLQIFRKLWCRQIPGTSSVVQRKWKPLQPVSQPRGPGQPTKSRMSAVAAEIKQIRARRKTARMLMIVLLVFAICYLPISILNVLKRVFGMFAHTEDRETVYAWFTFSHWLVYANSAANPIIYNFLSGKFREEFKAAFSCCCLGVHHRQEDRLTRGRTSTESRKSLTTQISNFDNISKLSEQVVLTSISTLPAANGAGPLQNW
The data set can be described thus: Measurement of OX2R agonist activity (cell-based calcium release assay). The following applies: hOx2R-CHO Flp-In cells, n≥2 tests; for EC50: intracellular calcium, read-out: EC50; for Emax: normalized to assay buffer (0%) and 10 μM Danavorexton (100%), read-out: Emax (%). In outline:
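CHO Flp-In cells stably expressing human Ox2R, dye-loaded 1 h at 37 °C in HBSS/20 mM HEPES pH 7.4 with 2.5 mM probenecid and 10 mM CaCl2, then stimulated with compound.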
In general terms: Calcium flux is commonly read through the fluorescence of an indicator in the cells.

Data set [2] has as its target T2, P-gp (MDR1) (Homo sapiens, UniProt P08183).
T2 construct: host or cells: MDCKII (canine kidney) cells transfected with human MDR1
The data set can be described thus: MDR1-MDCKII assay (bidirectional transport). Type of data set: in vitro ADME. To be noted: MDCK-MDR1, pH 7.4, test compound 0.5 μM, MDR1-MDCKII monolayer; for efflux ratio at 0.5 μM: read-out: ER (efflux ratio); for Papp A→B at 0.5 μM: apical to basolateral. How it is done:
Bidirectional transport in MDCKII cells transfected with human MDR1 were assessed according to previously published methodology (Langthaler, K. et al. (2024). Fluids Barriers CNS, 21 (11): 1-15). In brief, cells obtained from the Netherlands Cancer Institute were maintained at 37° C. in α-MEM containing 10% FBS, 100 μg/mL penicillin-G, 100 μg/mL streptomycin, 1% non-essential amino acid under culture conditions of 5% CO2 and 95% relative humidity. Transport of test compound (0.5 μM, 0.4% DMSO final concentrations) across the cell monolayer was determined in triplicate on a single test occasion along with controls for low and high permeability (fenoterol and metoprolol, 2 μM) and P-gp efflux (digoxin, 10 μM). Each compound was loaded onto either the apical side (75 μL) or basolateral side (275 μL) with transport buffer (1% BSA in HBSS with 10 mM HEPES (pH 7.4)) on the opposing side of the cells (e.g. 50 μL or 250 μL on the apical or basolateral side). A sample (25 μL) from the donor compartment was taken 30 s after test compound is loaded onto the plate, resulting in a final incubation volume of 50 μL and 250 μL on apical and basolateral sides respectively. At the end of the incubation period, samples (75 μL) were taken from both sides. The donor samples (25 μL) were firstly diluted with transport buffer (50 μL) and then all samples were quenched in acetonitrile (125 μL) containing internal analytical standards. After centrifugation (20 min, 3220 g, 4° C.) the supernatants were analysed by LC-MS/MS. The apparent permeability coefficient (Papp) and efflux ratio (ER) were calculated using the equations below; where dCr/dt is the compound concentration in the receiver chamber as a function of time (μM/s); Vr is the solution volume in the receiver chamber; A is the surface area of the cell monolayer; C0 is the initial concentration in the donor compartment; and Papp A-B and Papp B-A refer to the apparent permeabilities in the respective directions. Compound permeability is classified as low, moderate, or high according to Papp value binning classifications: <1, 1 to 6 or >6×10^−6 cm/s, respectively. The ER is employed to classify compounds as unlikely, possible, or likely P-gp substrates when ER was: <1.5, 1.5 to <2 or >2, respectively.

T2 sequence (P08183 whole entry): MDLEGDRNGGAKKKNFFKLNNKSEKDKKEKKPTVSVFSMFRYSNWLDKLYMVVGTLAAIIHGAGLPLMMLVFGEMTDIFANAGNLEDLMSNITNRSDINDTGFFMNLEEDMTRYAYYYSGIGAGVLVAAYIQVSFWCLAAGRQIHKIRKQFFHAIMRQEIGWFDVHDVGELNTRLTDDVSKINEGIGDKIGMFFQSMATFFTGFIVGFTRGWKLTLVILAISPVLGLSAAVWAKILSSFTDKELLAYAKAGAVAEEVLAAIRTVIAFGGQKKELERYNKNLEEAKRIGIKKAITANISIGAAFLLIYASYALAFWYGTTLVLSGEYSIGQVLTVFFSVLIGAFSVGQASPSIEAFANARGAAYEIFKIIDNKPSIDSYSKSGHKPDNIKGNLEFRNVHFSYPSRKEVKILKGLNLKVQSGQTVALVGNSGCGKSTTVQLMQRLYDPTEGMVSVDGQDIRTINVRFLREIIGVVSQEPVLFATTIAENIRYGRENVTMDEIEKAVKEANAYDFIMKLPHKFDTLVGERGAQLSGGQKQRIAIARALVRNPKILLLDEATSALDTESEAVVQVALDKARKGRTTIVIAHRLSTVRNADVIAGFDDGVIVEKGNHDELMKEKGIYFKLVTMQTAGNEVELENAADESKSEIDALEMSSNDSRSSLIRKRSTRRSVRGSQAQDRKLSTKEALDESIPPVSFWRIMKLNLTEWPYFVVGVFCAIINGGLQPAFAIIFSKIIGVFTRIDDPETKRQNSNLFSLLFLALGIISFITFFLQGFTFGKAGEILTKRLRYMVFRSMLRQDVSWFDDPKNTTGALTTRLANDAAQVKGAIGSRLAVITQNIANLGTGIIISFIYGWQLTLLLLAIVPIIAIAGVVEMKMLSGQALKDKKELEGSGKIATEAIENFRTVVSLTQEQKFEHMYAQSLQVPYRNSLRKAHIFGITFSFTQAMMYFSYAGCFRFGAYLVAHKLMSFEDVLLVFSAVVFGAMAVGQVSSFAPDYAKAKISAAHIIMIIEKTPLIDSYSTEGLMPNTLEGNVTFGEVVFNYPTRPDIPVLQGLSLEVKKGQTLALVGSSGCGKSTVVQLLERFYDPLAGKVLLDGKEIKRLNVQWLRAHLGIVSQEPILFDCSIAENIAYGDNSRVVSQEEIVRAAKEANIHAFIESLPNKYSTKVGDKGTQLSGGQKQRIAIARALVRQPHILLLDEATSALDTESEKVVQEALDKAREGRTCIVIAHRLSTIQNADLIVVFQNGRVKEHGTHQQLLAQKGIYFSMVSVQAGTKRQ

Regarding `Cc1oc2nc1COc1c(F)cccc1-c1cc(ccc1F)C[C@@]21CC[C@H](NS(C)(=O)=O)C1` [Example 25, N-[(1′S,14R)-6,19-difluoro-11-methyl-spiro[8,12-dioxa-21-azatetracyclo[14.3.1.110,13.02,7]henicosa-1(19),2,4,6,10,13(21),16(20),17-octaene-14,3′-cyclopentane]-1′-yl]methanesulfonamide], in data set [1], the EC50 worked out at 0.066 nM and the Emax came to 97%. Besides, in data set [2], the efflux ratio at 0.5 μM came out at 2 and the Papp A→B at 0.5 μM worked out at 8.2 ×10⁻⁶ cm/s.
`CS(=O)(=O)N[C@H]1CC[C@@]2(Cc3cc(c(F)cc3F)-c3cc(F)cc(F)c3OCc3coc2n3)C1` [Example 30, N-[(1′S,14R)-4,6,17,19-tetrafluorospiro[8,12-dioxa-21-azatetracyclo[14.3.1.110,13.02,7]henicosa-1(19),2,4,6,10,13(21),16(20),17-octaene-14,3′-cyclopentane]-1′-yl]methanesulfonamide]: in data set [1], the EC50 was found to be 0.077 nM and the Emax was 97%. Also, in data set [2], the efflux ratio at 0.5 μM amounted to 1.8 and the Papp A→B at 0.5 μM amounted to 9.04 ×10⁻⁶ cm/s.
On the same counts, the results for `CS(=O)(=O)N[C@H]1CC[C@@]2(Cc3cc(c(F)cc3F)-c3cccc(F)c3OCc3csc2n3)C1` [Example 36, N-[(1′S,14R)-6,17,19-trifluorospiro[8-oxa-12-thia-21-azatetracyclo[14.3.1.110,13.02,7]henicosa-1(19),2,4,6,10,13(21),16(20),17-octaene-14,3′-cyclopentane]-1′-yl]methanesulfonamide] are 0.058 nM, 100%, 1.1 and 8.23 ×10⁻⁶ cm/s.
Turning to `CS(=O)(=O)N[C@H]1CC[C@@]2(Cc3cc(c(F)cc3F)-c3cccc(F)c3OCc3coc2n3)C1` [Example 39, N-[(1′S,14R)-6,17,19-trifluorospiro[8,12-dioxa-21-azatetracyclo[14.3.1.110,13.02,7]henicosa-1(19),2,4,6,10,13(21),16(20),17-octaene-14,3′-cyclopentane]-1′-yl]methanesulfonamide], in data set [1], the EC50 stood at 0.035 nM and the Emax stood at 97%. In data set [2], the efflux ratio at 0.5 μM worked out at 1.1 and the Papp A→B at 0.5 μM is 10.2 ×10⁻⁶ cm/s.
`CS(=O)(=O)N[C@H]1CC[C@@]2(CO[C@H]3CC[C@H](CC3)c3cccc(n3)OCc3coc2n3)C1` [Example 42, N-[(1s,1′S,13S,16s)-spiro[7,11,15-trioxa-21,22-diazatetracyclo[14.2.2.12,6.19,12]docosa-2,4,6(22),9,12(21)-pentaene-13,3′-cyclopentane]-1′-yl]methanesulfonamide]: in data set [1], the EC50 is 0.062 nM and the Emax turned out to be 98%. In addition, in data set [2], the efflux ratio at 0.5 μM amounted to 1 and the Papp A→B at 0.5 μM came out at 13 ×10⁻⁶ cm/s.
In the case of `CS(=O)(=O)NC1CC[C@@]2(CO[C@H]3CC[C@H](CC3)c3cccc(F)c3OCc3coc2n3)C1` (stereo partly drawn) [Example 100, N-[(1R,1′S,14S,17R)-6-fluorospiro[8,12,16-trioxa-22-azatetracyclo[15.2.2.110,13.02,7]docosa-2,4,6,10,13(22)-pentaene-14,3′-cyclopentane]-1′-yl]methanesulfonamide], in data set [1], the EC50 amounted to 0.037 nM and the Emax is 100%. Also, in data set [2], the efflux ratio at 0.5 μM is 1.8 and the Papp A→B at 0.5 μM came to 10.2 ×10⁻⁶ cm/s.
For `O=S(=O)(N[C@H]1CC[C@@]2(Cc3cc(c(F)cc3F)-c3cccc(F)c3OCc3coc2n3)C1)C1CC1` [Example 104, N-[(1′S,14R)-6,17,19-trifluorospiro[8,12-dioxa-21-azatetracyclo[14.3.1.110,13.02,7]henicosa-1(19),2,4,6,10,13(21),16(20),17-octaene-14,3′-cyclopentane]-1′-yl]cyclopropanesulfonamide], in data set [1], the EC50 was 0.08 nM and the maximal effect (Emax) came out at 100%. In data set [2], the efflux ratio at 0.5 μM came to 1.6 and the apical-to-basolateral permeability (Papp A→B) at 0.5 μM came out at 9.52 ×10⁻⁶ cm/s.
`O=S(=O)(CF)N[C@H]1CC[C@@]2(Cc3ccc(F)c(c3)-c3cccc(F)c3OCc3coc2n3)C1` [Example 113, N-[(1′S,14R)-6,19-difluorospiro[8,12-dioxa-21-azatetracyclo[14.3.1.110,13.02,7]henicosa-1(20),2,4,6,10,13(21),16,18-octaene-14,3′-cyclopentane]-1′-yl]-1-fluoro-methanesulfonamide]: in data set [1], the EC50 is 0.054 nM and the Emax was 95%. Also, in data set [2], the efflux ratio at 0.5 μM was determined as 1.3 and the Papp A→B at 0.5 μM stood at 6.47 ×10⁻⁶ cm/s.
On the same counts, the results for `O=S(=O)(N[C@H]1CC[C@@]2(Cc3ccc(F)c(c3)-c3cccc(F)c3OCc3coc2n3)C1)C1(F)CC1` [Example 116, N-[(1′S,14R)-6,19-difluorospiro[8,12-dioxa-21-azatetracyclo[14.3.1.110,13.02,7]henicosa-1(20),2,4,6,10,13(21),16,18-octaene-14,3′-cyclopentane]-1′-yl]-1-fluoro-cyclopropanesulfonamide] are 0.068 nM, 98%, 1.5 and 3.87 ×10⁻⁶ cm/s.
Regarding `CS(=O)(=O)N[C@@H]1C[C@]2(Cc3ccc(F)c(c3)-c3cccc(F)c3OCc3coc2n3)[C@H]2C[C@@H]12` [Example 117, N-[(1′R,2′R,5′S,14R)-6,19-difluorospiro[8,12-dioxa-21-azatetracyclo[14.3.1.110,13.02,7]henicosa-1(20),2,4,6,10,13(21),16,18-octaene-14,4′-bicyclo[3.1.0]hexane]-2′-yl]methanesulfonamide], in data set [1], the EC50 came to 0.048 nM and the Emax turned out to be 100%. In addition, in data set [2], the efflux ratio at 0.5 μM is 1.9 and the Papp A→B at 0.5 μM stood at 9.31 ×10⁻⁶ cm/s.
